Source: US6506876B1, “LTA4 hydrolase inhibitor pharmaceutical compositions and methods of use” (G.D. Searle & Co., priority 1994, dated 2003)

test system: LTB4 production in mouse blood (LTA4 hydrolase); experiment: Ex vivo LTB4 production by calcium ionophore stimulated mouse blood after oral dosing; format: in vivo; details: Mus musculus, po, 1 h, read-out: Murine Ex Vivo LTB4 Inhibition % I LTB4
Method: Ex Vivo LTB4 and Thromboxane Production by Calcium Ionophore Stimulated Mouse Blood for LTA4 Hydrolase Inhibitor Activity
Leukotriene A4 hydrolase inhibitor compounds of the present invention were diluted to a predetermined concentration in phosphate buffered saline containing 2% DMSO and 1% Tween 80. The compounds were administered by oral gavage to adult male outbred mice weighing approximately 20-30 gm at a dose of 10 mg/kg body weight. (Compounds given at a dose of 50 mg/kg body weight are designtated in following Table by the symbol, *.) Sixty (60) minutes after administration of an LTA4 inhibitor compound of the invention, blood was collected (into heparin-containing tubes) from the retroorbital sinus. […] The mixture was incubated for 10 minutes at 37° C. in a humidified incubator. The reaction was terminated by centrifugation (833 g, 10 minutes at 4° C.). Supernatants were analyzed for LTB4 and thromboxane by commercially available enzyme-linked immunoassays (Caymen Chemical Co., Ann Arbor, Mich.] in accordance with the manufacturer's instructions. The percent inhibition was determined by comparison to animals treated identically except that the solution admininstered by oral gavage was devoid of inhibitor compound.

Row | Compound | inhibition in vivo at 10 mg/kg [%]
1 | c1ccc(Cc2ccc(OCCn3cnc4ncncc43)cc2)cc1 [357 A] | 57
2 | Fc1ccc(Oc2ccc(OCCN3CCCC3)cc2)cc1 [Example 48, 1-[2-[4-(4-fluorophenoxy)phenoxy]ethyl]pyrrolidine] | 13
3 | COC(=O)CCN(C)CCCOc1ccc(Cc2ccsc2)cc1 [Example 330] | 95

same assay, conditions: mouse, oral gavage, 1 hour after administration of 10 mg/kg; read-out: Murine Ex Vivo LTB4 Inhibition % I LTB4

Row | Compound | inhibition in vivo at 10 mg/kg [%]
4 | c1ccc(Oc2ccc(OCCCn3cnc4ncccc43)cc2)cc1 [350 B] | 38
5 | c1ccc(Oc2ccc(OCCCn3cccc4ncnc3-4)cc2)cc1 [350 C] | 35
6 | c1ccc(Oc2ccc(OCCCn3ccc4ncnc-4c3)cc2)cc1 [351 C] | 42
7 | Fc1ccc(Oc2ccc(OCCn3cnc4ncccc43)cc2)cc1 [354 B] | 32
8 | Fc1ccc(Oc2ccc(OCCn3cccc4ncnc3-4)cc2)cc1 [354 C] | 6
9 | Fc1ccc(Oc2ccc(OCCn3cnc4ccncc43)cc2)cc1 [355 A] | 44
10 | Fc1ccc(Oc2ccc(OCCn3cnc4cnccc43)cc2)cc1 [355 B] | 37
11 | Fc1ccc(Oc2ccc(OCCn3ccc4ncnc-4c3)cc2)cc1 [355 C] | 48
12 | c1ccc(Cc2ccc(OCCCn3cnc4ccncc43)cc2)cc1 [356 A] | 14
13 | c1ccc(Cc2ccc(OCCCn3cnc4cnccc43)cc2)cc1 [356 B] | 33
14 | c1ccc(Cc2ccc(OCCCn3ccc4ncnc-4c3)cc2)cc1 [356 C] | 48
15 | c1ccc2ncc(Cc3ccc(OCCN4CCCC4)cc3)cc2c1 [Example 132] | 83
16 | c1csc(Cc2ccc(OCCN3CCCC3)cc2)c1 [Example 133] | 49
17 | Oc1ccc(Cc2ccc(OCCN3CCCC3)cc2)cc1 [Example 137] | 38
18 | c1ccc(Cc2ccc(OCCN3CCCC3)cc2)nc1 [Example 138] | 21
19 | Fc1ccc(Cc2ccc(OCCN3CCCC3)cc2)cc1 [Example 139] | 9
20 | Fc1cccc(Cc2ccc(OCCN3CCCC3)cc2)c1 [Example 142] | 32
21 | NC(=O)C1CCN(CCOc2ccc(Cc3ccccc3)cn2)CC1 [Example 147] | 94
22 | Clc1ccccc1COc1ccc(OCCN2CCCC2)cc1 [Example 208] | 13
23 | FC(F)(F)c1cccc(COc2ccc(OCCN3CCCC3)cc2)c1 [Example 209] | 0
24 | NC(=O)C1CCN(CCOc2ccc(Cc3cccs3)cc2)CC1 [Example 229] | 70
25 | NC(=O)C1CCN(CCOc2ccc(Cc3ccsc3)cc2)CC1 [Example 230] | 53
26 | NC(=O)C1CCN(CCOc2ccc(Cc3cccc(F)c3)cc2)CC1 [Example 233] | 98
27 | c1ccc(Cc2ccc(OCCNC3CCCCC3)cc2)cc1 [Example 240] | 33
28 | c1ccc(Cc2ccc(OCCNC3CCCC3)cc2)cc1 [Example 241] | 33
29 | OC1CCN(CCOc2ccc(Cc3ccccc3)cc2)CC1 [Example 247] | 70

biological target: T1, recombinant human LTA4 hydrolase (rhLTA4H) (Homo sapiens, UniProt P09960); experiment: Recombinant human LTA4 hydrolase assay for LTA4 hydrolase inhibitor activity; details: Recombinant Human LTA4 Hydrolase Assay IC50 LTA4H
T1 sequence (P09960 1-611): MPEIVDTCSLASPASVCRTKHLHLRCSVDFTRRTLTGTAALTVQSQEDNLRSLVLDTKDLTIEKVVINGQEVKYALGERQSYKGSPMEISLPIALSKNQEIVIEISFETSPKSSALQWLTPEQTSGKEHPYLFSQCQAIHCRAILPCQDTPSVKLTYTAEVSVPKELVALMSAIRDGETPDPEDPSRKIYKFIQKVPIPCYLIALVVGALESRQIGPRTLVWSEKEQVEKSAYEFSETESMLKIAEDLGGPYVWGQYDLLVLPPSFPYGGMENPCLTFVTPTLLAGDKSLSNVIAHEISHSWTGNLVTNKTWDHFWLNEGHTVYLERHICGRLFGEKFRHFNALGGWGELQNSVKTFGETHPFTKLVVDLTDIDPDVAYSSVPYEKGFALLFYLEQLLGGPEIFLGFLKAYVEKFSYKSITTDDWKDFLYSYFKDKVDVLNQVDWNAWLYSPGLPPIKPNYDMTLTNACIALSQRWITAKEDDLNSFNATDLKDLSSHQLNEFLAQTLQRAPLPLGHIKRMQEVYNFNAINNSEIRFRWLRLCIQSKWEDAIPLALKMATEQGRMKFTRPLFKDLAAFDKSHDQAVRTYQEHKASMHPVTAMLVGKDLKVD

Row | Compound | IC50 [nM]
30 | c1ccc(Cc2ccc(OCCn3cnc4ncncc43)cc2)cc1 [357 A] | 47

same assay, conditions: Recombinant Human LTA4 Hydrolase Assay IC50 LTA4H, recombinant hLTA4H

Row | IC50 [nM] | Compound
31 | 350 | c1ccc(Cc2ccc(OCCCn3cnc4ccncc43)cc2)cc1 [356 A]
32 | 170 | c1ccc(Cc2ccc(OCCCn3cnc4cnccc43)cc2)cc1 [356 B]
33 | 100 | c1ccc(Cc2ccc(OCCCn3ccc4ncnc-4c3)cc2)cc1 [356 C]
34 | 10 | c1csc(Cc2ccc(OCCN3CCCC3)cc2)c1 [Example 133]
35 | 30 | Oc1ccc(Cc2ccc(OCCN3CCCC3)cc2)cc1 [Example 137]
36 | 420 | c1ccc(Cc2ccc(OCCN3CCCC3)cc2)nc1 [Example 138]
37 | 110 | Fc1ccc(Cc2ccc(OCCN3CCCC3)cc2)cc1 [Example 139]
38 | 37 | Fc1cccc(Cc2ccc(OCCN3CCCC3)cc2)c1 [Example 142]
39 | 370 | NC(=O)C1CCN(CCOc2ccc(Cc3cccc(F)c3)cc2)CC1 [Example 233]
40 | 1070 | c1ccc(Cc2ccc(OCCNC3CCCCC3)cc2)cc1 [Example 240]
41 | 600 | c1ccc(Cc2ccc(OCCNC3CCCC3)cc2)cc1 [Example 241]
42 | 100 | OC1CCN(CCOc2ccc(Cc3ccccc3)cc2)CC1 [Example 247]

Second part, the molecule before the results:

Row | Compound | IC50 [nM]
43 | c1ccc(Oc2ccc(OCCCn3cnc4ncccc43)cc2)cc1 [350 B] | 550
44 | c1ccc(Oc2ccc(OCCCn3cccc4ncnc3-4)cc2)cc1 [350 C] | 620
45 | c1ccc(Oc2ccc(OCCCn3ccc4ncnc-4c3)cc2)cc1 [351 C] | 43
46 | Fc1ccc(Oc2ccc(OCCn3cnc4ncccc43)cc2)cc1 [354 B] | 280
47 | Fc1ccc(Oc2ccc(OCCn3cccc4ncnc3-4)cc2)cc1 [354 C] | 480
48 | Fc1ccc(Oc2ccc(OCCn3cnc4ccncc43)cc2)cc1 [355 A] | 1370
49 | Fc1ccc(Oc2ccc(OCCn3cnc4cnccc43)cc2)cc1 [355 B] | 870
50 | Fc1ccc(Oc2ccc(OCCn3ccc4ncnc-4c3)cc2)cc1 [355 C] | 28
51 | Fc1ccc(Oc2ccc(OCCN3CCCC3)cc2)cc1 [Example 48, 1-[2-[4-(4-fluorophenoxy)phenoxy]ethyl]pyrrolidine] | 150
52 | c1ccc2ncc(Cc3ccc(OCCN4CCCC4)cc3)cc2c1 [Example 132] | 84
53 | NC(=O)C1CCN(CCOc2ccc(Cc3ccccc3)cn2)CC1 [Example 147] | 1060
54 | Clc1ccccc1COc1ccc(OCCN2CCCC2)cc1 [Example 208] | 4000
55 | FC(F)(F)c1cccc(COc2ccc(OCCN3CCCC3)cc2)c1 [Example 209] | 3000
56 | NC(=O)C1CCN(CCOc2ccc(Cc3cccs3)cc2)CC1 [Example 229] | 240
57 | NC(=O)C1CCN(CCOc2ccc(Cc3ccsc3)cc2)CC1 [Example 230] | 390
58 | COC(=O)CCN(C)CCCOc1ccc(Cc2ccsc2)cc1 [Example 330] | 900
